Measured values published in patent US7329653B2, “Cyclohexylphenyl vasopressin agonists” (Wyeth, priority 2001, dated 2008).

Columns and labels:
vasopressin V2 receptors = target: T1, vasopressin V2 receptors (Rattus norvegicus, UniProt Q00788); test: Vasopressin V2 agonist effects in normal conscious water-loaded rats; assay type: in vivo; conditions: vs control; oral dose of 10 mg/Kg; urine collected for four hours; Sprague-Dawley (CD) rats
T1 construct: Male or female normotensive Sprague-Dawley rats; tissue Charles River Laboratories, Inc; host or cells: whole animal (Sprague-Dawley rat; kidney collecting ducts per the background)
T1 sequence (Q00788 whole entry): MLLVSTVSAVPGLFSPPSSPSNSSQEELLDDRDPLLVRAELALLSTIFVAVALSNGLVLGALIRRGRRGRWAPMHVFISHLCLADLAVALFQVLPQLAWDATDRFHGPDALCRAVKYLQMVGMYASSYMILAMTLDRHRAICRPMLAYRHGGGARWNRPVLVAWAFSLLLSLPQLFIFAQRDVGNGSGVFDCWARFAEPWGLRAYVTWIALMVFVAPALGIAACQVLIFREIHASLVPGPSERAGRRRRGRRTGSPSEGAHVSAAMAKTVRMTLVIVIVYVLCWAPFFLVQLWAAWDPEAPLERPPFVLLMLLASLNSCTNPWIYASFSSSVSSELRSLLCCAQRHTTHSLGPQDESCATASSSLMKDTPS
From the text: Vasopressin V2 Agonist Effects of Test Compounds in Normal Conscious Water-Loaded Rats
Male or female normotensive Sprague-Dawley rats (Charles River Laboratories, Inc., Kingston, N.Y.) of 350-500 g body weight were supplied with standard rodent diet (Purina Rodent Lab. Chow 5001) and water ad libitum. On the day of test, rats were placed individually into metabolic cages equipped with devices to separate the feces from the urine and containers for collection of urine. A test compound or a reference agent was given at an oral dose of 10 mg/Kg in a volume of 10 mL/Kg. The vehicle used was 2.5% preboiled corn starch in 20% dimethylsulfoxide (DMSO). Thirty minutes after dosing the test compound, rats were gavaged with water at 30 mL/Kg into the stomach using a feeding needle. During the test, rats were not provided with water or food. Urine was collected for four hours after dosing of the test compound. At the end of four hours, urine volume was measured. Urinary osmolality was determined using a Fiske One-Ten Osmometer (Fiske Associates, Norwood, Mass., 02062) or an Advanced CRYOMATIC Osmometer, Model 3C2 (Advanced Instruments, Norwood, Mass.). Determinations of Na^+, K^+ and Cl^− ion were carried out using ion specific electrodes in a Beckman SYNCHRON EL-ISE Electrolyte System analyzer. The urinary osmolality should increase proportionally. In the screening test, two rats were used for each compound. If the difference in the urine volume of the two rats was greater than 50%, a third rat was used.

Structure (SMILES) | Urinary Osmolality (% increase) (vasopressin V2 receptors) | Urine Volume (% decrease) (vasopressin V2 receptors) | melting point [°C]
O=C(c1ccc(C2CCCCC2)cc1)N1Cc2cccn2Cc2ccccc21 [Example 1, 10-(4-Cyclohexyl-benzoyl)-10,11-dihydro-5H-pyrrolo[2,1-c][1,4]benzodiazepine] | 232 | 61 | 127 to 129
O=C(c1ccc(C2CCCCC2)cc1)N1Cc2cccnc2Nc2ccccc21 [Example 2, (4-Cyclohexyl-phenyl)-(5,11-dihydro-pyrido[2,3-b][1,5]benzodiazepin-6-yl)-methanone] | 51 | 48 | 230 to 233
CN1c2ccccc2N(C(=O)c2ccc(C3CCCCC3)cc2)Cc2cccnc21 [Example 3, (4-Cyclohexyl-phenyl)-(5,11-dihydro-11-methyl-5H-pyrido[2,3-b][1,5]benzodiazepin-6-yl)-methanone] | 129 | 51 | –
CCN1c2ccccc2N(C(=O)c2ccc(C3CCCCC3)cc2)Cc2cccnc21 [Example 4, (4-Cyclohexyl-phenyl)-(5,11-dihydro-11-ethyl-5H-pyrido[2,3-b][1,5]benzodiazepin-6-yl)-methanone] | 132 | 64 | –
O=C(c1ccc(C2CCCCC2)cc1)N1Cc2ccccc2Nc2ccccc21 [Example 5, (4-Cyclohexyl-phenyl)-(5,11-dihydro-10H-dibenzo[b,e][1,4]diazepin-10-yl)methanone] | – | – | 175 to 176

Now from value to molecule:

Urinary Osmolality (% increase) (vasopressin V2 receptors) | Urine Volume (% decrease) (vasopressin V2 receptors) | melting point [°C] | Structure (SMILES)
– | – | 111 to 112 | CN1c2ccccc2CN(C(=O)c2ccc(C3CCCCC3)cc2)c2ccccc21 [Example 6, (4-Cyclohexyl-phenyl)-(5,11-dihydro-5-methyl-10H-dibenzo[b,e][1,4]diazepin-10-yl)-methanone]
– | – | 150 to 152 | O=C(c1ccc(C2CCCCC2)cc1)N1Cc2cccn2Cc2ncccc21 [Example 7, (4-Cyclohexyl-phenyl)-(4H,10H-3a,5,9-triaza-benzo[f]azulen-9-yl)-methanone]
– | – | 145 to 148 | O=C(c1ccc(C2CCCCC2)cc1)N1CCCCc2sccc21 [Example 8, (4-Cyclohexyl-phenyl)-(5,6,7,8-tetrahydro-thieno[3,2-b]azepin-4-yl)-methanone]
